Test results as given in article PMC10135315 (Antioxidants, 2023).
Like-named read-outs stand apart in the source and are kept apart here.

Legend:
[1] = test system: XO; conditions: cited from earlier work
[2] = target: T1, xanthine oxidase from bovine milk (Bos taurus, UniProt P80457); assay: Steady-state determination of XO activity (uric acid formation at 295 nm), dose-dependent inhibition; format: biochemical; conditions: 75 µM xanthine; for IC50: steady-state determination, 25 °C, pH 7.8
T1 construct: xanthine oxidase from bovine milk (0.5 U/mg); purchased Sigma-Aldrich (St. Louis, MO, USA); host or cells: bovine milk (natural source)
Protocol: The activity of XO was measured spectrophotometrically at 25 °C by monitoring the increase of absorbance at 295 nm due to the formation of uric acid, using a Cary 100 UV-Vis Spectrophotometer (Agilent Technologies, Milan, Italy), essentially, as previously reported. […] The DMSO concentration carried over by the inhibitor was 0.5% (v/v); an identical concentration of DMSO was used in the absence of inhibitor. The reaction started with the addition of XO and was followed kinetically up to 30 s by continuously monitoring the absorbance. The initial rate of uric acid formation was derived from the linear part of the kinetics and expressed as ΔE/min. The effect of each inhibitor was evaluated through the ratio of residual XO activity measured in the presence of each inhibitor over that measured in the absence of inhibitor.

[3] = target: T1, xanthine oxidase from bovine milk; assay: Kinetic measurements of XO activity (Michaelis-Menten / Lineweaver-Burk); format: biochemical; conditions: for Ki / Vmax in presence of inhibitor: 4-30 µM xanthine; for Ki: from increase of KM for xanthine, competitive model; for Mechanism of XO inhibition: kinetic analysis; for Vmax in presence of inhibitor: pooled over the tested inhibitor concentrations
Protocol: The inhibition power of the various compounds and their mechanism of inhibition were assessed through kinetic measurements of the XO activity. To this aim, each assay was carried out in a 500 µL final volume reaction mixture, containing 4–30 µM xanthine dissolved in buffer A in the absence or presence of a fixed concentration of the various inhibitors. The reaction started with the addition of XO and was followed as indicated in steady-state assays. The kinetic parameters of the reaction, KM for the substrate and Vmax of the reaction, were derived either from the direct non-linear interpolation in the Michaelis–Menten hyperbolic equation of the initial rate of uric acid formation vs. the xanthine concentration or from a double reciprocal transformation of the kinetic data in Lineweaver–Burk plots. […] Therefore, the inhibition constant (Ki) was obtained from the increase of KM for xanthine in the presence of the inhibitor, according to the KM′ = KM•{1 + ([I]/Ki)} equation, where KM′ represents the KM for xanthine measured in the presence of the concentration [I] of the inhibitor.

[4] = target: T1, xanthine oxidase from bovine milk; assay: Reversibility of XO inhibition by dilution method; format: biochemical
Protocol: The reversibility of the inhibition mechanism was evaluated through a dilution method of a solution containing XO and inhibitor. To this aim, a sample of XO was incubated at 25 °C in the absence or presence of a concentrated solution of inhibitor. Aliquots of these mixtures were withdrawn at different times and 4-fold diluted through the addition of a solution containing the substrate xanthine. The samples were then immediately assayed for XO activity as previously indicated for the steady-state determinations.

[5] = known XO inhibitors co-crystallised into XO, no reference given

T1 sequence (P80457 whole entry): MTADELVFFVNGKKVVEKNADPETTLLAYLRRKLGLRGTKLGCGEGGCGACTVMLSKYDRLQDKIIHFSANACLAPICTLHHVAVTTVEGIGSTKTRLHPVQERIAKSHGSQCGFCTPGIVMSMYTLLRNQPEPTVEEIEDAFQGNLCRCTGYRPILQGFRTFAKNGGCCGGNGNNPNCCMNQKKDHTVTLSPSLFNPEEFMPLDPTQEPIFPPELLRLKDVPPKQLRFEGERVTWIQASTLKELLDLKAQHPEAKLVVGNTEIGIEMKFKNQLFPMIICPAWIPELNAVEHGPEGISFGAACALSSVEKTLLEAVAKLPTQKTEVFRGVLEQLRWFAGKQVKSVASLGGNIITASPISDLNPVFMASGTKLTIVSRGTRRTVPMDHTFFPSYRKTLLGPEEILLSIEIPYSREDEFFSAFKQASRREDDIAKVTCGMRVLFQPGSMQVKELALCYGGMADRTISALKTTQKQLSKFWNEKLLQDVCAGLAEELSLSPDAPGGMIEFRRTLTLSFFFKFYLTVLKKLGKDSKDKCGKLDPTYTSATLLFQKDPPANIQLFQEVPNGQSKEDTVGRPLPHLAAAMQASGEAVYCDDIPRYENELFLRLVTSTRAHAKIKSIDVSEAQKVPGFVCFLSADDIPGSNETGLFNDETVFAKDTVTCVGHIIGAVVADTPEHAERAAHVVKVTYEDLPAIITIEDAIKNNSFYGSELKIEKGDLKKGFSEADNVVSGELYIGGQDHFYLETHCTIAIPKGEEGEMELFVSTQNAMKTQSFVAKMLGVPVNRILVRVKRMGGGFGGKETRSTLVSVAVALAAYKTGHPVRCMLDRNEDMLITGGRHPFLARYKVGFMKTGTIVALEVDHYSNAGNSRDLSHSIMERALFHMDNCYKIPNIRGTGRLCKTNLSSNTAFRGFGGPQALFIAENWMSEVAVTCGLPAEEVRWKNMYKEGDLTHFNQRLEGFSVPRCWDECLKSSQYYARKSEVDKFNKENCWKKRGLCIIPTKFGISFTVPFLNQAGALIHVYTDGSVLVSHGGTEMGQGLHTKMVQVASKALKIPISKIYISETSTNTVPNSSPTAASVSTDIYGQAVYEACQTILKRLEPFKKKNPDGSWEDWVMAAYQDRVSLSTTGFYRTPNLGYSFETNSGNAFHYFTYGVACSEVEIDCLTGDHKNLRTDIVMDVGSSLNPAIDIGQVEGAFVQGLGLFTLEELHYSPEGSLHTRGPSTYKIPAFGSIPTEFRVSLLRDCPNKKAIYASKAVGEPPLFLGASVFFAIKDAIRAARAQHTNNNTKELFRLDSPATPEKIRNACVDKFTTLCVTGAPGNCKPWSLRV

Inhibition profile of XO activity [2] | IC50 [2] [µM] | Ki [3] [µM] | Mechanism of XO inhibition [3] | Vmax in presence of inhibitor [3] | Reversibility of inhibition ([4]; preincubation with XO at 25 °C up to 30 min, then 4-fold dilution (ALS-28: 60 µM to 15 µM)) | SMILES | Inhibition mechanism [1, 5] | Inhibition mechanism [1] | Time-dependent reduction of XO activity ([4]; 60 µM inhibitor, 25 °C, up to 30 min)
– | – | – | – | – | – | O=C(O)c1ccccc1O [salicylic acid] | competitive inhibitor | – | –
dose-dependent inhibition | 64 | 23 ± 9 | competitive inhibitors | 0.086 ± 0.003 (n = 4) ΔE/min | – | Brc1cncc(-c2nn[nH]n2)c1 [ALS-15] | – | – | –
– | – | – | – | – | – | O=c1c(O)c(-c2ccc(O)c(O)c2)oc2cc(O)cc(O)c12 [quercetin] | competitive | – | –
– | – | – | – | – | – | Cc1nc(-c2ccc(OCC(C)C)c(C#N)c2)sc1C(=O)O [TEI-6720, febuxostat] | – | mixed-type inhibition | –
– | – | – | – | – | – | N#Cc1cc(-c2n[nH]c(-c3ccncc3)n2)ccn1 [FYX-051, topiroxostat] | – | hybrid-type inhibition mechanism | –
dose-dependent inhibition | 18 | 2.7 ± 1.5 | competitive inhibitors | 0.113 ± 0.007 (n = 4) ΔE/min | reversible inhibitor | O=C(O)c1cc(-c2ccc(Cl)cc2)ncn1 [ALS-28] | – | – | no time-dependent reduction of XO activity
dose-dependent inhibition | 82 | 41 ± 14 | competitive inhibitors | 0.087 ± 0.004 (n = 2) ΔE/min | – | O=C(O)c1cc2ccc(Br)cc2[nH]1 [ALS-1] | – | – | –
dose-dependent inhibition | 30 | 4.5 ± 1.5 | competitive inhibitors | 0.093 ± 0.007 (n = 4) ΔE/min | – | O=C(O)c1cc(-c2cccc(F)c2)[nH]n1 [ALS-8] | – | – | –
